According to patent US20100135905A1, “ASSESSMENT OF CANCER SUSCEPTIBILITY TO MOLECULAR TARGETED THERAPY BY USE OF RECOMBINANT PEPTIDES” (priority 2004, published 2010):

Assays:
[1] = system: tumor vasculature; experiment: Tumor vascular length density, intravital tumor vascular window; assay type: in vivo, mice
Experimental: Tumor vascular linear density was measured by use of intravital tumor vascular window. […] Five mice were treated in each of the treatment groups, and the vascular length density after treatment was quantified.

[2] = system: D54 tumors; experiment: Tumor growth delay with SU11248, D54 tumors; assay type: in vivo, nude mice; conditions: SU11248 alone
Experimental: (§1) D54 and LLC tumors were implanted into both hind limbs of nude mice as described in Example 2. Tumors were grown over the course of seven to 10 days.
(§2) In comparison, LLC tumors responded to SU11248 alone or in combination with radiation.

[3] = system: LLC tumors; experiment: Tumor growth delay with SU11248, LLC tumors; assay type: in vivo, nude mice; conditions: drug alone
Experimental: as §1, §2

[4] = system: HUVECs; experiment: Apoptotic nuclei in HUVECs, H&E staining; assay type: cell-based, human; conditions: 24 hours
Experimental: After a 24-hour incubation period, cells were fixed and stained with Hematoxylin and Eosin (H&E). Five high-powered fields (400×) were observed and counted for each experimental group.

[5] = system: tumor endothelial cells; experiment: TUNEL staining of treated tumor sections; assay type: in vivo
[6] = system: A431, Colo205, H460, C6 and SF763T tumors; conditions: regression, growth arrest or growth delay of xenografts; cited from earlier work
[7] = system: LLC tumors; experiment: Tumor growth delay, LLC hind limb tumors; assay type: in vivo, mice
From the text: As disclosed herein, the induction of apoptosis correlated with the biological response in tumor blood vessels and tumor growth delay. […] Both the inhibitor and radiation were discontinued after day 8. […] Time to doubling of LLC tumor size was 5, 6, 8, and 16 days for each group, respectively.

[8] = system: HUVECs; experiment: Clonogenic survival of HUVECs; assay type: cell-based, human; conditions: SU11248 prior to irradiation compared to radiation alone (p<0.05)

For `CCN(CC)CCNC(=O)c1c(C)[nH]c(/C=C2\C(=O)Nc3ccc(F)cc32)c1C` [SU11248], the “Vascular length density (VLD) in tumors” value ([1]; SU11248 40 mg/kg followed by 3 Gy, within 72 hours) was 8 % of that at 0 hours, the “Vascular length density (VLD) in tumors” value ([1]; SU11248 alone) was 84 % that of 0 hour and the Tumor growth delay [2] was “did not show tumor growth delay”. The Tumor growth delay [3] was “showed a tumor growth delay”, the “Percentage of endothelial cells with apoptotic nuclei” value ([4]; 100 nM SU11248 alone) was 7% and the “Percentage of endothelial cells with apoptotic nuclei” value ([4]; 100 nM SU11248 followed by 6 Gy) was 21%. For the same compound, the “Threshold radiation dose for induction of apoptosis” value ([5]; SU11248 administered prior to irradiation, tumor endothelium) was 2 Gy, the “TUNEL staining of tumor sections” value ([5]; SU11248 alone) was “no TUNEL staining” and the “TUNEL staining of tumor sections” value ([5]; SU11248 followed by 3 Gy, co-localization with vWF) was “positive TUNEL staining in endothelial cells”. For the same compound, the “Anti-tumor activity in mice” value [6] was “broad and potent anti-tumor activity”, the “Time to doubling of LLC tumor size” value ([7]; SU11248 40 mg/kg i.p. 30 minutes before each 3 Gy dose (21 Gy total)) was 16 days and the “Time to doubling of LLC tumor size” value ([7]; SU11248 40 mg/kg i.p. daily, seven administrations, alone) was 6 days. The Clonogenic survival [8] was “significant reduction in clonogenic survival”.
